From patent US5360803A, “Composition and method for treating cancer” (Dan Farber Cancer Institute, priority 1992, dated 1994)
Where two headings read alike, the source gives them in different places.

Legend:
CV-1 cells = assay: selective killing assay, colony number reduced to 50% of control, normal monkey kidney epithelial cell line CV-1; assay type: cell-based; conditions: 24 hours treatment; for IC50: Primates
Description: The control received culture media only.

human melanoma LOX = assay: survival of nude mice implanted with human melanoma LOX; assay type: in vivo, male athymic Swiss nu/nu mouse (human tumor); conditions: Mus musculus, ip, 24 h, read-out: T/C
Description: LOX, a human melanoma cell line, grown subcutaneously in nude mice was excised, trypsinized to yield a single cell suspension using a metal grid with a […] mesh. […] Five million viable trypan blue negative cells made up in 0.1 ml of Dulbecco modified Eagle medium (DMFE) were injected into the peritoneal cavity of a male athymic Swiss nu/nu mouse. The control group and each treatment group consisted of 5 to 10 mice. Treatment was commenced the following day by intraperitoneal injection.
Ten control mice received 0.25 ml of 2% dextrose on these days the treated groups were injected with the compounds of this invention. […] T/C is the ratio, expressed as a percentage of the mean survival age of the treated group to the mean survival age of the untreated control group.

CX-1 cells = assay: selective killing assay, colony number reduced to 50% of control, human colon carcinoma cell line CX-1; assay type: cell-based; conditions: for IC50: Homo sapiens, CX-1, Table III; for IC50 / CX-1 (IC50): human colon carcinoma, 24 hours treatment, colony count after 7 to 10 days; for Selectivity (ratio of IC50 for CV-1 and IC50 for CX-1): CV-1/CX-1; for CX-1 (IC50): Table III;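 on all read-outs here: colonies stained with crystal violet and counted, control cells given medium alone, exposure at 37 °C, normal monkey kidney epithelial CV-1 cells as the non-cancer comparator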
Description: (§1) Human colon carcinoma cell line CX-1 or normal monkey kidney epithelial cell line CV-1 was chosen as representatives of cancer cells and normal cells, respectively. […] CX-1 cells (2,000 cells/well) and CV-1 cells (1,000 cells/well) were plated in 24-well plastic culture plates. […] The control received culture media only. Cells were treated with compounds of General Formulas (I) to (V) at 37° C. for 24 hours. After rinsing with fresh culture medium three times, the cells were further incubated at 37° C. for 7 to 10 days. Cell colonies were fixed and stained with 2% crystal violet in 70% ethanol for 10 minutes and rinsed in water. […] The selectivity is defined as the ratio of IC50 for CV-1 and IC50 for CX-1.

LOX cells = assay: colony assay of Example 1 with human melanoma LOX cell line; assay type: cell-based; conditions: for Selectivity: CV-1/LOX; for IC50: Homo sapiens, LOX, 24 h;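 on all read-outs here: colony formation assay with 24 h exposure at 37 °C, then 7 to 10 days of regrowth, crystal violet staining of colonies, control wells given medium alone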
Description: as §1

EJ cells = assay: colony assay of Example 1 with human bladder carcinoma EJ cell line; assay type: cell-based; conditions: for Selectivity: CV-1/EJ; for IC50: Homo sapiens, EJ, 24 h;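 on all read-outs here: colony formation assay with 24 h compound exposure at 37 °C, then 7–10 days drug-free regrowth, colonies stained with crystal violet, controls given medium alone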
CRL 1420 cells = assay: colony assay of Example 1 with human pancreatic carcinoma CRL 1420 cell line; assay type: cell-based; conditions: for Selectivity: CV-1/CRL-1420; for IC50: Homo sapiens, 24 h;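 on all read-outs here: colony formation assay, cells exposed for 24 h then regrown 7 to 10 days without compound, colonies stained with crystal violet, control given medium alone, normal reference CV-1 monkey kidney epithelial cells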
[1] = CV-1, Table III, normal monkey kidney epithelial cells, colony count after 7 to 10 days
[2] = Table III, normal monkey kidney epithelial cells, colony count after 7 to 10 days
[3] = Table V, human melanoma, 24 hours treatment
[4] = 5 mg/kg i.p. on day 1, 4, 8, 11
[5] = Table IV, human bladder carcinoma, 24 hours treatment
[6] = 5 mg/kg i.p. on day 1, 4, 8, 10, 12
[7] = Table VII, human pancreatic carcinoma, 24 hours treatment

SMILES | IC50 (CV-1 cells; [1]) [µg/mL] | IC50 (CX-1 cells) [µg/mL] | Selectivity (ratio of IC50 for CV-1 and IC50 for CX-1) (CX-1 cells) | IC50 (CV-1 cells; CV-1, 24 h, Table V) [µg/mL] | Selectivity (LOX cells) | IC50 (LOX cells; [3]) [µg/mL] | further results
CCn1c(=Cc2sc3ccc4ccccc4c3[n+]2CC)sc(=C2Sc3ccccc3N2C)c1=O [Compound 30] | 2 | 0.01 |  |  |  |  | response vs control in vivo at 2.5 mg/kg (human melanoma LOX; 2.5 mg/kg i.p. on day 1, 4, 6, 8): 171%
CCn1c(=Cc2sc3c4ccccc4ccc3[n+]2CC)sc(=C2Sc3ccc4ccccc4c3N2C)c1=O [Compound 92] |  |  | 500 |  |  |  | CV-1 (IC50) (CV-1 cells; [2]): 20 µg/mL; response vs control in vivo at 2.5 mg/kg (human melanoma LOX; 2.5 mg/kg i.p. on day 1, 2, 3, 4, 6, 7, 8, 10, 11): 186%; CX-1 (IC50) (CX-1 cells): 0.04 µg/mL
CCn1c(=Cc2oc3ccccc3[n+]2C)oc(=C2Sc3ccccc3N2C)c1=O [Compound 11] | > 20 | 0.03 | > 667 | > 30 | > 300 | < 0.1 | IC50 (CV-1 cells; CV-1, 24 h, Table IV): > 20 µg/mL; response vs control in vivo at 5 mg/kg (human melanoma LOX; [4]): 132%; Selectivity (EJ cells): > 400; IC50 (EJ cells; [5]): 0.05 µg/mL
CCn1c(=Cc2sc3c4ccccc4ccc3[n+]2CC)sc(=C2Sc3ccc(OC)cc3N2C)c1=O [Compound 53] | 10 | 0.04 | 250 |  |  |  | response vs control in vivo at 10 mg/kg (human melanoma LOX; 10 mg/kg i.p. on day 1, 2, 3, 5, 8, 10, 13): 150%
C=CCn1c(=Cc2oc3ccccc3[n+]2CC)sc(=C2Sc3ccccc3N2C)c1=O [Compound 3] | 6 | 0.03 | 200 |  |  |  | response vs control in vivo at 5 mg/kg (human melanoma LOX; 5 mg/kg i.p. on day 1, 4, 8, 11, 14, 16): 218%
CCn1c(=C2CCC[n+]3c2sc2ccccc23)sc(=C2Sc3ccccc3N2C)c1=O [Compound 343] |  |  |  |  |  |  | response vs control in vivo at 5 mg/kg (human melanoma LOX; 5 mg/kg i.p. on day 1, 3, 4, 6, 8, 10, 13): 188%
CCn1c(=Cc2cccc[n+]2CC)sc(=C2Sc3ccccc3N2C)c1=O [Compound 342] |  |  |  |  |  |  | response vs control in vivo at 5 mg/kg (human melanoma LOX; 5 mg/kg i.p. on day 1, 5, 8, 11, 14): > 350%
CCn1c(=Cc2scc(C)[n+]2CC)sc(=C2Sc3ccc4ccccc4c3N2C)c1=O [Compound 344] |  |  |  |  |  |  | response vs control in vivo at 5 mg/kg (human melanoma LOX; [6]): > 288%
CCn1c(=Cc2oc3cc4ccccc4cc3[n+]2CC)sc(=C2Sc3ccccc3N2C)c1=O [Compound 22] | 10 | 0.01 | 1000 | 10 | 100 | 0.1 | IC50 (CV-1 cells; CV-1, 24 h, Table IV): 20 µg/mL; response vs control in vivo at 5 mg/kg (human melanoma LOX; [4]): 179%; Selectivity (EJ cells): 100; IC50 (EJ cells; [5]): 0.2 µg/mL
CCn1c(=Cc2oc3ccc4ccccc4c3[n+]2CC)sc(=C2Oc3ccc4ccccc4c3N2C)c1=O [Compound 87] | 20 | 0.05 | 400 |  |  |  | response vs control in vivo at 10 mg/kg (human melanoma LOX; 10 mg/kg i.p. on day 1, 3, 6, 9, 10): 150%
CCn1c(=Cc2cc[n+](CC)c3ccccc23)sc(=C2Sc3ccc4ccccc4c3N2C)c1=O [Compound 90] | 8 | 0.04 | 200 |  |  |  | response vs control in vivo at 5 mg/kg (human melanoma LOX; 5 mg/kg i.p. on day 1, 8, 13): 163%
CCn1c(=Cc2cc[n+](CC)c3ccccc23)sc(=C2C=Cc3ccccc3N2C)c1=O [Compound 256] | 4 | 0.02 | 200 |  |  |  | response vs control in vivo at 5 mg/kg (human melanoma LOX; [6]): 171%
CCn1c(=Cc2sc3ccccc3[n+]2CC)sc(=C2Sc3ccc(C)cc3N2C)c1=O [Compound 50] | 8 | 0.04 | 200 |  |  |  | response vs control in vivo at 5 mg/kg (human melanoma LOX; 5 mg/kg i.p. on day 1, 2, 3, 6, 9, 10, 13): 163%
CCn1c(=Cc2cccc[n+]2CC)sc(=C2Sc3ccccc3N2C)c1=O [Compound 283] |  |  |  |  |  |  | response vs control in vivo at 5 mg/kg (human melanoma LOX; 5 mg/kg i.p. on day 1, 4, 8, 11, 14): > 350%
CCn1c(=Cc2cccc[n+]2CC)sc(=C2Oc3c(ccc4ccccc34)N2C)c1=O [Compound 214] |  |  |  | 20 | 500 | 0.04 | response vs control in vivo at 10 mg/kg (human melanoma LOX; 10 mg/kg i.p. on day 1, 4, 8, 10, 12): > 300%
CCn1c(=Cc2oc3ccccc3[n+]2CC)sc(=C2Sc3ccccc3N2C)c1=O [Compound 245] |  |  | 350 |  |  |  | CV-1 (IC50) (CV-1 cells; [2]): 0.02 µg/mL; response vs control in vivo at 15 mg/kg (human melanoma LOX; 15 mg/kg i.p. on day 1, 5, 9, 13, 19): 200%; CX-1 (IC50) (CX-1 cells): 7 µg/mL
CCn1c(=Cc2scc(C)[n+]2CC)sc(=C2Sc3ccccc3N2C)c1=O [Compound 339] |  |  |  | 10 | 333 | 0.03 | response vs control in vivo at 5 mg/kg (human melanoma LOX; [6]): > 340%
CCn1c(=Cc2sc3ccc(Cl)cc3[n+]2CC)sc(=C2Sc3ccc4ccccc4c3N2C)c1=O [Compound 94] | 20 | 0.05 | 400 |  |  |  | response vs control in vivo at 10 mg/kg (human melanoma LOX; 10 mg/kg i.p. on day 1, 3, 6, 8, 10, 13, 15): 161%
CCn1c(=Cc2oc3c4ccccc4ccc3[n+]2CC)sc(=C2Oc3ccc4ccccc4c3N2C)c1=O [Compound 316] |  |  | 100 |  |  |  | CV-1 (IC50) (CV-1 cells; [2]): 1 µg/mL; response vs control in vivo at 5 mg/kg (human melanoma LOX; [6]): > 340%; CX-1 (IC50) (CX-1 cells): 0.01 µg/mL
CCn1c(=Cc2cccc[n+]2CC)sc(=C2Sc3c(ccc4ccccc34)N2C)c1=O [Compound 239] | 20 | 0.1 | 200 | 20 | 400 | 0.05 | IC50 (CV-1 cells; CV-1, 24 h, Table IV): 20 µg/mL; IC50 (CV-1 cells; CV-1, 24 h, Table VII): 20 µg/mL; Selectivity (CRL 1420 cells): 400; IC50 (CRL 1420 cells; [7]): 0.05 µg/mL; Selectivity (EJ cells): 250; IC50 (EJ cells; [5]): 0.08 µg/mL
CCn1c(=Cc2sc3ccccc3[n+]2CC)sc(=C2Sc3ccc(Cl)cc3N2C)c1=O [Compound 244] | 0.05 | 10 |  |  |  |  | response vs control in vivo at 10 mg/kg (human melanoma LOX; 10 mg/kg i.p. on day 1, 2, 6, 8, 13): 150%
CCn1c(=Cc2sc3ccc4ccccc4c3[n+]2CC)sc(=C2Sc3ccccc3N2C)c1=O [Compound 338] |  |  |  | 2 | 400 | 0.005 | response vs control in vivo at 4 mg/kg (human melanoma LOX; 4 mg/kg i.p. on day 1, 3, 4, 6, 8, 10, 13): 194%
CCn1c(=Cc2oc3c4ccccc4ccc3[n+]2CC)sc(=C2Sc3c(ccc4ccccc34)N2C)c1=O [Compound 238] | 20 | 0.05 | 400 | 20 | 1000 | 0.02 | IC50 (CV-1 cells; CV-1, 24 h, Table IV): 20 µg/mL; IC50 (CV-1 cells; CV-1, 24 h, Table VII): 20 µg/mL; Selectivity (CRL 1420 cells): 1000; IC50 (CRL 1420 cells; [7]): 0.02 µg/mL; Selectivity (EJ cells): 2000; IC50 (EJ cells; [5]): 0.01 µg/mL
CCn1c(=Cc2oc3ccccc3[n+]2C)sc(=C2Sc3ccccc3N2C)c1=O [Compound 12] |  |  | > 667 |  | > 300 |  | CV-1 (IC50) (CV-1 cells; [2]): > 20 µg/mL; CV-1 (IC50) (CV-1 cells; Table IV): > 20 µg/mL; CV-1 (IC50) (CV-1 cells; Table V): > 30 µg/mL; CV-1 (IC50) (CV-1 cells; Table VII): 20 µg/mL; LOX(IC50) (LOX cells; [3]): < 0.1 µg/mL; Selectivity (CRL 1420 cells): 222; CRL-1420(IC50) (CRL 1420 cells; [7]): 0.09 µg/mL; CX-1 (IC50) (CX-1 cells): 0.03 µg/mL; Selectivity (EJ cells): > 400; EJ (IC50) (EJ cells; [5]): 0.05 µg/mL
CCn1c(=CC2=[N+](CC)CCS2)sc(=C2SC3=C(CCCC3)N2C)c1=O [Compound 211] |  |  |  |  |  |  | response vs control in vivo at 5 mg/kg (human melanoma LOX; 5 mg/kg i.p. on day 1, 4, 8, 10): 194%
CCn1c(=Cc2sc3c([n+]2CC)-c2ccccc2CC3)sc(=C2Oc3ccc(Cl)cc3N2C)c1=O [Compound 213] |  |  |  | 6 | 200 | 0.03 | IC50 (CV-1 cells; CV-1, 24 h, Table IV): 6 µg/mL; IC50 (CV-1 cells; CV-1, 24 h, Table VII): 6 µg/mL; Selectivity (CRL 1420 cells): 200; IC50 (CRL 1420 cells; [7]): 0.03 µg/mL; Selectivity (EJ cells): 200; IC50 (EJ cells; [5]): 0.03 µg/mL
